Assay results from patent publication US20120152149A1, “USE OF 1,3-DIOLS AS BIOCIDES” (BASF SE, priority 2009, published 2012).
Where two headings read alike, the source gives them in different places.

Legend:
Format in all cases: cell-based
C. albicans ATCC 10231 [1] = test: Preservation stress test, example formulation 1 (standard emulsion O/W); settings: 1% active substance
Description: (§1) Preservation stress tests (PSTs) were carried out in order to determine the preserving activity of the diols. In the preservation stress test, this is simulated through artificial loadings with microorganisms. These can either be inoculated as mixed population or individually in mixtures independent of one another. The inoculated product samples are incubated under defined conditions and, after defined times, samples are taken in order to determine the germ loading. In the case of adequate preservation, the number of microorganisms should, depending on the type, either decrease or remain constant in order to satisfy the requirements specified, e.g. in Ph. Eur. 6.0. To investigate the preserving effect of the diols, application-typical amounts of the diols were incorporated into example formulations. […] [table] These example formulations were used to prepare various mixtures which each comprised 1% active substance or comprised water instead of the active substance as placebo mixtures. These mixtures were in each case inoculated with the test germs such that a germ loading of 10^5-10^6 CFU/g was present in the test mixture. The bacteria were either used individually for the inoculation or as a mixed culture. To determine the starting germ count, immediately after inoculation, an aliquot was taken, diluted in dilution medium (phosphate buffer, 0.07 molar pH 7.4 (+/−0.2), with 1% Tween 80+0.3% soya lecithin), and the surviving germ count was determined in the dilution stages 10^−1 to 10^−3. The inoculated product samples then incubated for a total of 28 d at 20-25° C. After 2 d, 7 d, 14 d and after 28 d, aliquots were taken and diluted in dilution medium (phosphate buffer, 0.07 molar pH 7.4 (+/−0.2), with 1% Tween 80+0.3% soya lecithin). The surviving germ counts were determined in the dilution stages 10^−1 to 10^−4. The reference point taken for determining the reduction in germ count was the respective initial value of the sample. The results were given as logarithmic reductions.

A. niger ATCC 16404 [2] = test: as above; settings: 1% active substance
Description: as §1

[3] = tested on: P. aeruginosa NCIMB 10421; test: Microstatic activity, MIC in tryptone soy broth; settings: Pseudomonas aeruginosa, NCIMB10421, 30° C., 48 hours
Description: (§2) For this, in each case a 40 percent strength by weight solution of a diol in propylene glycol was prepared at 60° C. This solution was diluted with a double-strength soy solution (double-strength tryptone soy broth) as nutrient medium in the volume ratio 1:1. Further dilution with soy solution produced solutions with the following concentrations: 400 000 ppm (40%), 200 000 ppm (20%), 100 000 ppm (10%), 50 000 ppm (5%), 25 000 ppm (2.5%), 12 500 ppm (1.25%), 6250 ppm (0.625%), 3125 ppm (0.3125%). Pure soy solution was used as negative control. The positive control used was a solution of 5 ml of soy solution which has been treated with 0.1 ml of the respective microorganism. The test solutions consisted of 5 ml of the above-described soy solutions of the diols in the particular concentration which have been mixed with 0.1 ml of the respective microorganism. The samples and controls were incubated in the case of the bacteria at 30° C. for 48 hours, and in the case of fungi over 5 days at 25° C. In each case, the MIC (Minimum Inhibitory Concentration) value was determined. This value indicates the minimum concentration above which the growth of the microorganisms was visibly hindered compared to the corresponding sample without addition of the diol. […] For example, this was evident from the occurrence of clouding or visible growth of the microorganism. […] The MIC value stated is a range between the next higher concentration of a positive test and the same and/or lower concentration of a first negative test.

S. aureus NCIMB 9578 = test: Microstatic activity, MIC in tryptone soy broth; settings: Staphylococcus aureus, NCIMB9578, 30° C., 48 hours
Description: as §2

P. vulgaris NCIMB 4175 = test: Microstatic activity, MIC in tryptone soy broth; settings: Proteus vulgaris, NCIMB4175, 30° C., 48 hours
Description: as §2

A. niger IMI 149007 = test: Microstatic activity, MIC in tryptone soy broth; settings: Aspergillus niger, IMI149007, 120 h, 25° C., 5 days
Description: as §2

E. coli NCIMB 8545 = test: Microstatic activity, MIC in tryptone soy broth; settings: Escherichia coli, NCIMB8545, 30° C., 48 hours
Description: as §2

C. albicans NCPF 3179 = test: Microstatic activity, MIC in tryptone soy broth; settings: Candida albicans, NCPF3179, 120 h, 25° C., 5 days
Description: as §2

E. coli ATCC 10536 = test: Preservation stress test, example formulation 2 (roll-on deodorant formulation); settings: 1% active substance
Description: as §1

C. albicans ATCC 10231 [4] = test: as above; settings: 1% active substance
Description: as §1

S. aureus ATCC 6538 = test: as above; settings: 1% active substance
Description: as §1

P. aeruginosa ATCC 15442 = test: as above; settings: 1% active substance
Description: as §1

A. niger ATCC 16404 [5] = test: as above; settings: 1% active substance
Description: as §1

[6] = lower limit of MIC range, read-out: MIC value (ppm of diol), from
[7] = upper limit of MIC range, read-out: MIC value (ppm of diol), to

| Compound | Microbicidal activity given as logarithmic reduction in germ count (C. albicans ATCC 10231 [1]; 48 h) | Microbicidal activity given as logarithmic reduction in germ count (C. albicans ATCC 10231 [1]; 7 d) | Microbicidal activity given as logarithmic reduction in germ count (C. albicans ATCC 10231 [1]; 14 d) | Microbicidal activity given as logarithmic reduction in germ count (A. niger ATCC 16404 [2]; 48 h) | Microbicidal activity given as logarithmic reduction in germ count (A. niger ATCC 16404 [2]; 7 d) | Microbicidal activity given as logarithmic reduction in germ count (A. niger ATCC 16404 [2]; 14 d) | MIC [3, 6] | MIC [3, 7] | MIC (S. aureus NCIMB 9578; [6]) | MIC (S. aureus NCIMB 9578; [7]) | MIC (P. vulgaris NCIMB 4175; [6]) | MIC (P. vulgaris NCIMB 4175; [7]) | MIC (A. niger IMI 149007; [6]) | MIC (A. niger IMI 149007; [7]) | MIC (E. coli NCIMB 8545; [6]) | MIC (E. coli NCIMB 8545; [7]) | MIC (C. albicans NCPF 3179; [6]) | MIC (C. albicans NCPF 3179; [7]) | Microbicidal activity given as logarithmic reduction in germ count (E. coli ATCC 10536; 48 h) | Microbicidal activity given as logarithmic reduction in germ count (E. coli ATCC 10536; 7 d) | further results |
| --- | --- | --- | --- | --- | --- | --- | --- | --- | --- | --- | --- | --- | --- | --- | --- | --- | --- | --- | --- | --- | --- |
| CCCC(O)CO (centres unmarked) [1,2-Pentanediol, 1,2-pentanediol, reference compound] | 0 log. Red. | 0 log. Red. | 0 log. Red. | 0 log. Red. | 0 log. Red. | 0 log. Red. | > 12.5 mg/mL | ≤ 25 mg/mL | > 25 mg/mL | ≤ 50 mg/mL | > 25 mg/mL | ≤ 50 mg/mL | > 12.5 mg/mL | ≤ 25 mg/mL | > 25 mg/mL | ≤ 50 mg/mL | > 25 mg/mL | ≤ 50 mg/mL | 0 log. Red. | 1 log. Red. | Microbicidal activity given as logarithmic reduction in germ count (E. coli ATCC 10536; 14 d): 1 log. Red.; Microbicidal activity given as logarithmic reduction in germ count (C. albicans ATCC 10231 [4]; 48 h): 0 log. Red.; Microbicidal activity given as logarithmic reduction in germ count (C. albicans ATCC 10231 [4]; 7 d): 0 log. Red.; Microbicidal activity given as logarithmic reduction in germ count (C. albicans ATCC 10231 [4]; 14 d): 0 log. Red.; Microbicidal activity given as logarithmic reduction in germ count (S. aureus ATCC 6538; 48 h): 1 log. Red.; Microbicidal activity given as logarithmic reduction in germ count (S. aureus ATCC 6538; 7 d): 1 log. Red.; Microbicidal activity given as logarithmic reduction in germ count (S. aureus ATCC 6538; 14 d): 5 log. Red.; Microbicidal activity given as logarithmic reduction in germ count (P. aeruginosa ATCC 15442; 48 h): 0 log. Red.; Microbicidal activity given as logarithmic reduction in germ count (P. aeruginosa ATCC 15442; 7 d): 3 log. Red.; Microbicidal activity given as logarithmic reduction in germ count (P. aeruginosa ATCC 15442; 14 d): 5 log. Red.; Microbicidal activity given as logarithmic reduction in germ count (A. niger ATCC 16404 [5]; 48 h): 0 log. Red.; Microbicidal activity given as logarithmic reduction in germ count (A. niger ATCC 16404 [5]; 7 d): 0 log. Red.; Microbicidal activity given as logarithmic reduction in germ count (A. niger ATCC 16404 [5]; 14 d): 0 log. Red. |
| OCC1(CO)CC2CCC1C2 (centres unmarked) [2,2-DMNB, 2,2-dimethylolnorbornane] | 1 log. Red. | ≧3 log. Red. | 5 log. Red. | 0 log. Red. | 0 log. Red. | 0 log. Red. | > 12.5 mg/mL | ≤ 25 mg/mL | > 12.5 mg/mL | ≤ 25 mg/mL | > 6.25 mg/mL | ≤ 12.5 mg/mL | > 25 mg/mL | ≤ 50 mg/mL | > 3.12 mg/mL | ≤ 6.25 mg/mL | > 50 mg/mL | ≤ 100 mg/mL | 2 log. Red. | ≧3 log. Red. | Microbicidal activity given as logarithmic reduction in germ count (C. albicans ATCC 10231 [1]; 28 d): 5 log. Red.; Microbicidal activity given as logarithmic reduction in germ count (A. niger ATCC 16404 [2]; 28 d): 0 log. Red.; Microbicidal activity given as logarithmic reduction in germ count (E. coli ATCC 10536; 14 d): 5 log. Red.; Microbicidal activity given as logarithmic reduction in germ count (E. coli ATCC 10536; 28 d): 5 log. Red.; Microbicidal activity given as logarithmic reduction in germ count (C. albicans ATCC 10231 [4]; 48 h): 0 log. Red.; Microbicidal activity given as logarithmic reduction in germ count (C. albicans ATCC 10231 [4]; 7 d): ≧3 log. Red.; Microbicidal activity given as logarithmic reduction in germ count (C. albicans ATCC 10231 [4]; 14 d): 0 log. Red.; Microbicidal activity given as logarithmic reduction in germ count (S. aureus ATCC 6538; 48 h): ≧3 log. Red.; Microbicidal activity given as logarithmic reduction in germ count (S. aureus ATCC 6538; 7 d): 5 log. Red.; Microbicidal activity given as logarithmic reduction in germ count (S. aureus ATCC 6538; 14 d): 5 log. Red.; Microbicidal activity given as logarithmic reduction in germ count (S. aureus ATCC 6538; 28 d): 5 log. Red.; Microbicidal activity given as logarithmic reduction in germ count (P. aeruginosa ATCC 15442; 48 h): 3 log. Red.; Microbicidal activity given as logarithmic reduction in germ count (P. aeruginosa ATCC 15442; 7 d): 5 log. Red.; Microbicidal activity given as logarithmic reduction in germ count (P. aeruginosa ATCC 15442; 14 d): 5 log. Red.; Microbicidal activity given as logarithmic reduction in germ count (P. aeruginosa ATCC 15442; 28 d): 5 log. Red.; Microbicidal activity given as logarithmic reduction in germ count (A. niger ATCC 16404 [5]; 48 h): 0 log. Red.; Microbicidal activity given as logarithmic reduction in germ count (A. niger ATCC 16404 [5]; 7 d): 0 log. Red.; Microbicidal activity given as logarithmic reduction in germ count (A. niger ATCC 16404 [5]; 14 d): 0 log. Red. |
